These results are taken from article PMC11952846, “The sterol-regulating human ARV1 binds cholesterol and phospholipids through its conserved ARV1 homology domain” (The Journal of Biological Chemistry, 2025).

Positions count from the first letter of the chain named.

One experiment concerns the target GST-Annexin A2 (Homo sapiens, UniProt P07355). Kind of experiment: Lipid overlay far western (positive control protein). The class given is binding. The method, then:
(§1) Lipid overlays were blocked in TBST-BSA (100 mM Tris–HCl buffer, pH 7.5, 150 mM NaCl, 0.5% Tween 20, 3% bovine serum albumin) for 1 h and subsequently washed eight separate times with TBST for 2 min each. Overlays were incubated with 0.5 μg/ml GST-tagged or 6XHIS-tagged proteins in 3% TBST-BSA buffer containing 0.1% Triton X-100, for 1 h at room temperature and washed as above. Overlays were incubated with either anti-GST or anti-6XHIS monoclonal antibodies at a 1:1000 dilution in TBST-BSA for 1 h at room temperature followed by eight washes in TBST. Overlays were visualized using Immobilon Western Chemiluminescent horseradish peroxidase substrate and protein–lipid interaction was detected using a GE ImageQuant LAS 3000 imager.

For a further experiment, the target named is T1, GST-ARV1-N98 (Homo sapiens, UniProt Q9H2C2).
T1 construct: Expresses amino-terminal 98 amino acids of ARV1; made in house; host or cells: E. coli BL21 (pGEX-4T1)
T1 sequence (Q9H2C2 1-98): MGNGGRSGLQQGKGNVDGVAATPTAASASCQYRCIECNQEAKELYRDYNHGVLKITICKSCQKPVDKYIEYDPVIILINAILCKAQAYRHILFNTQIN
In words: Lipid overlay far western. The class given is binding. The method, then: as §1

The target in experiment [1] is T2, GST-ARV1 (full-length ARV1) (Homo sapiens, UniProt Q9H2C2).
T2 construct: Expresses full length ARV1; made in house; host or cells: E. coli BL21 (pGEX-4T1)
T2 sequence (Q9H2C2 1-271): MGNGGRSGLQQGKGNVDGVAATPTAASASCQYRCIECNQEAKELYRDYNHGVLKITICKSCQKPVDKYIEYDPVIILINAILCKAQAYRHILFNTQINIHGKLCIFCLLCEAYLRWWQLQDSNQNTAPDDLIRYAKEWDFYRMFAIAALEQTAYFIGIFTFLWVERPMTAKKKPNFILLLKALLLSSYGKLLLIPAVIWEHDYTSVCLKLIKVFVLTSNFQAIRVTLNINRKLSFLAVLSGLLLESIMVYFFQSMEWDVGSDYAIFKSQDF
Kind of experiment: Lipid overlay far western. The class given is binding. The method, then: as §1

Experiment [2] concerns the target T3, GST-ARV1-N98 (N-terminal 98 amino acids, AHD) (Homo sapiens, UniProt Q9H2C2).
T3 construct: Expresses amino-terminal 98 amino acids of ARV1; made in house; host or cells: E. coli BL21 (pGEX-4T1)
T3 sequence (Q9H2C2 1-98): T1 sequence (Q9H2C2 1-98)
In words: Protein-lipid liposome binding assay (ultracentrifugation, Western blot). The conditions noted are these: protein detected in final pellet. The method, then: Lyophilized lipids were reconstituted in chloroform at 10 mg/ml and stored in glass tubes with Teflon tops at −20 °C until use. One milliliter of 10 mg/ml stock was dried under a stream of nitrogen in a glass tube until a lipid cake/film was formed. The lipid cake was then rehydrated in BLT rehydration buffer (5 mM Tris/HCl, pH 7.4, containing 150 mM NaCl) to a concentration of 1 mg/ml. Lipid suspensions were subjected to three freeze/thaw cycles using a dry ice ethanol/[…] water bath to encapsulate the buffer and improve liposome formation. The suspension and lipid extruder were equilibrated to temperature for 10 min and liposomes were extruded using […] polycarbonate membranes (Avestin). Liposomes were made by mixing stock lipid PL (1 mg/ml) with PC (10 mg/ml).
Cholesterol composition liposomes were rehydrated with cholesterol rehydration buffer (10 mM Hepes, pH 7.4, containing 150 mM KCl).
Liposomes were serial diluted in floatation buffer (100 mM NaCl, 2 mM EDTA, pH 5.5) to a final concentration of 0.1 mg/ml. Nine hundred microliters of liposome solution was placed in clear ultracentrifuge tubes and mixed with 100 μl of 0.01 μg/ml of protein. The liposome/protein solution was incubated at room temperature for 1 h with occasional shaking. An initial 100 μl of liposome/protein solution (liposomes) was removed and the remaining 900 μl was centrifuged at 50,000g for 20 min at 4 °C. The pellet was resuspended in 800 μl of fresh floatation buffer, centrifuged as above, and 800 μl of supernatant was removed (wash 1). This was repeated a second time and again 800 μl of supernatant was removed (wash 2). The final pellet was resuspended in 100 μl of floatation buffer plus SDS treatment buffer (pellet). Thirty microliters of each fraction was run on a 15% SDS-PAGE gel and probed with an anti-GST monoclonal antibody at a 1:1500 dilution.

The target of another experiment is T4, 6XHIS-N98 K84A (Homo sapiens, UniProt Q9H2C2, K84A).
T4 construct: made in house; host or cells: E. coli BL21
T4 sequence (Q9H2C2 1-98 K84A): T1 sequence (Q9H2C2 1-98) with K84A
In words: HTRF phospholipid lipid-binding assay, mutant. Also on record: key to Bio-PL, EC50, M ± S.D.: NC, no change. Conditions: biotinylated lipid, NC = no change vs N98. The text has this: An HTRF assay was developed for 6XHIS-ARV1-N98-lipid binding. HTRF measures analyte interactions through fluorescence resonance energy transfer technology and time-resolved measurements ([53]). The interaction between two molecules can be quantified through binding each individual molecule involved with a fluorescent label and then analyzing the transfer of energy between the initial donor fluorophore and the secondary acceptor fluorophore. Following excitation of the first fluorophore, transfer of energy can only occur if the molecules bound with the fluorescent tags are within proximity to each other.
Assays were plated in 384-well flat bottom microplates (Greiner Bio, catalog #784075-25). Proteins were diluted using binding buffer (20 mM Hepes buffer, pH 7.2, containing 0.1% BSA, and 0.01% Tween20) to a stock concentration of 0.75 μM, and biotinylated phospholipids were dispensed, dried under nitrogen gas, and resuspended in binding buffer to a stock concentration of 50 μM. The lipid stock solution was diluted by 1:2 for a series of 12 serial dilutions. For the assay, in sequential order, 6 μl of binding buffer was loaded into the plate in triplicate for each dilution of phospholipid. To this, 2 μl of 0.75 μM 6XHIS-ARV1-N98 was added, followed by 2 μl of biotinylated phospholipid. Immediately following each addition loaded into the plate, the plate was centrifuged for 1 min at 1000 rpm to bring the contents to the bottom of the well. Next, detection antibodies were mixed with detection buffer (20 mM Hepes buffer, pH 8.5, containing 0.01% BSA and 200 mM KF). Antibodies were a MAb anti-6XHIS Europium kryptate-conjugated D1 fluorescent antibody (Cisbio, #61HISKLA) and Streptavidin-conjugated d2 fluorescent antibody (Cisbio, #610SADLA). For each 1000 μl of detection buffer, 5 μl of each antibody was added just prior to loading 10 μl into each well. The plate was again centrifuged for 1 min at 1000 rpm and stored in a sealed container overnight, in the dark. Plates were read on a PerkinElmer EnVision Xcite Multilabel plate reader.
Curves were logarithmically transformed and normalized to a common scale before being fit with a nonlinear regression of the agonist against the normalized response. This generated half maximal effective concentration values (EC50; M) that could then be compared between different lipids. In the context of our study, EC50 values were defined as a measure of protein sensitivity to binding to a particular lipid within a dose response curve. For phospholipid competition analysis, IC50; M values were determined using nonlinear regression of the inhibitor against normalized response.

The mark [3] stands for this setting: lipid-embedded membrane strips, incl. sphingolipid strip.
Where [4] appears, read: PIP lipid membrane strip, 100pmol-1.56pmol per spot.

A word on the EC50: it is the concentration needed to bring the measured effect to its halfway point.

Sequence of GST-Annexin A2 (P07355 whole entry): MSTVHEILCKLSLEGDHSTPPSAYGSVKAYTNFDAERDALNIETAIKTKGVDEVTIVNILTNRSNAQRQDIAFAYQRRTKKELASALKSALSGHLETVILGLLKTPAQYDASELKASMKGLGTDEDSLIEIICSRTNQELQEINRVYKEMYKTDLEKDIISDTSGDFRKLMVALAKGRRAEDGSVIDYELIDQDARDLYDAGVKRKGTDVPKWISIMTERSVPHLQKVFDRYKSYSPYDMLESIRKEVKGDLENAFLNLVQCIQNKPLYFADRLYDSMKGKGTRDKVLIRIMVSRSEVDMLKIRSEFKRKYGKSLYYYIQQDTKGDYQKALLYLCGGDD

For `CCCCC/C=C\C/C=C\CCCCCCCC(=O)OC[C@H](COP(=O)(O)OCC(O)COP(=O)(O)OC[C@@H](COC(=O)CCCCCCC/C=C\C/C=C\CCCCC)OC(=O)CCCCCCC/C=C\C/C=C\CCCCC)OC(=O)CCCCCCC/C=C\C/C=C\CCCCC` (stereo partly drawn) [CL, cardiolipin], the lipid-protein interaction entry (at GST-Annexin A2 (setting [3]); at GST-ARV1-N98 (setting [3]); in experiment [1] (setting [3])) was “interacted” in each case. Besides, the “binding to PC:PL liposomes” value in experiment [2] is on record as “bound”.
For the compound `CCCCCCCCCCCCCCCC(=O)OC[C@H](COP(=O)(O)O)OC(=O)CCCCCCCCCCCCCCC` [PA, phosphatidic acid], the lipid-protein interaction entry at GST-Annexin A2 (setting [3]) is given as “weakly”. At 6XHIS-N98 K84A, the “Bio-PL, EC50, M ± S.D.” value was “NC”. Moreover, in experiment [2], the “binding to PC:PL liposomes” value is “not”.
As to `CCCCCCCC/C=C\CCCCCCCC(=O)OC[C@H](COP(=O)(O)OCC(O)CO)OC(=O)CCCCCCC/C=C\CCCCCCCC` (stereo partly drawn) [PG, phosphatidylglycerol], the lipid-protein interaction entry on GST-ARV1-N98 (setting [3]) was “interacted”; in experiment [1] (setting [3]) it was “weakly”. The “Bio-PL, EC50, M ± S.D.” value on 6XHIS-N98 K84A was “reduced”. Moreover, the “binding to PC:PL liposomes” value in experiment [2] is listed as “bound”.
For the compound `CCCCCCCCCCCCCCCCCC(=O)OC[C@H](COP(=O)(O)OC[C@H](N)C(=O)O)OC(=O)CCCCCCCCCCCCCCCCC` [PS, phosphatidylserine], the lipid-protein interaction result (at GST-Annexin A2 (setting [3]); at GST-ARV1-N98 (setting [3]); in experiment [1] (setting [3])) was “interacted” throughout. Further, the “Bio-PL, EC50, M ± S.D.” value on 6XHIS-N98 K84A was “NC”. Further, the “binding to PC:PL liposomes” value in experiment [2] is reported as “bound”.
As to `CCCCCC(=O)O[C@H](COC(=O)CCCCCNC(=O)CCCC[C@@H]1SC[C@@H]2NC(=O)N[C@@H]21)COP(=O)(O)O[C@H]1[C@H](O)[C@@H](O)[C@H](OP(=O)(O)O)[C@@H](O)[C@H]1O` [reference compound], the lipid-protein interaction result is “strongest interactions” on GST-Annexin A2 (setting [4]); “interacted” on GST-Annexin A2 (setting [3]); “interacted” at GST-ARV1-N98 (setting [4]); “interacted” on GST-ARV1-N98 (setting [3]); “weakly” in experiment [1] (setting [4]); “weakly” in experiment [1] (setting [3]).
On to phosphatidylcholine [PC], for which, at 6XHIS-N98 K84A, the “Bio-PL, EC50, M ± S.D.” value was “NC”.
Turning to phosphatidylethanolamine [PE], the lipid-protein interaction entry (at GST-ARV1-N98 (setting [3]); in experiment [1] (setting [3])) was “not seen” each time. Besides, the EC50 on 6XHIS-N98 K84A (read-out: Bio-PL, EC50, M ± S.D.) turned out to be 210 nM. Moreover, the “binding to PC:PL liposomes” value in experiment [2] is on record as “Neither”.
